Reference: patent US20140041064A1, “COMPOSITIONS AND METHODS FOR I[…] FACTORS AND ANTI-FUNGAL AGENTS” (WORCESTER POLYTECHNIC INSTITUTE, priority 2011, published 2014)

Tests used:
[1] = system: Macrophage cell line RAW 264.7; conditions: 0.05 μM DPI; RAW 264.7 macrophages co-cultured overnight with wild type, cap1Δ/Δ and CAP1-complemented C. albicans (1:15)
Procedure: Macrophage cell line RAW 264.7 (ATCC) was used in the assay. The cell line was maintained in DMEM supplemented with 10% fetal bovine serum (FBS). […] Briefly, macrophages on reaching 80-90% confluence were scraped and brought up in DMEM supplemented with 10% FBS and 100 U/ml penicillin and 100 μg/ml streptomycin. 2×10^6 macrophage cells were plated in a 35 mm^2 plate and allowed to adhere for 5 hours. Candida strains were grown overnight at 37° C., diluted 1:10, and allowed to grow for another 5 hours. Candida cells were then washed with supplemented DMEM and were added to the plates containing macrophages in a ratio of 1:15 macrophage and to a final volume of 2 ml. Yeast strain was also grown in parallel without macrophages to calculate % survival. The plates were incubated overnight at 37° C. and 5% CO2. Cells were then brought up to 24 mls in a tube using 0.05% Triton X-100 (v/v) in water to osmotically lyse the macrophage cells. Dilutions were prepared and plated on a YPD plate and grown overnight at 37° C. Colony forming units (CFU) were counted and percentage survival was calculated by taking the ratio of CFU from co culture of Candida and macrophage to the CFU obtained for Candida alone.
Experiments involving diphenyleneiodium chloride (DPI) were performed as mentioned above but with the addition of 0.05 μM DPI from a 31.8 mM stock solution in DMSO. […]

[2] = system: C. albicans; conditions: hydrogen peroxide at a final concentration of 2 mM; 20° C., 30° C. and 37° C.
Procedure: In vitro, Cap1 regulates the response to oxidative stress, which is a key component of the innate immune response to fungi (Alarco et al., J. Bacteriol. 181:700-708.3, 1999); Enjalbert et al., Mol. Biol. Cell. 17:1018-1032, 2006; Wang et al., Free Radic. Biol. Med. 40:1201-1209, 2006; Zhang et al., Mol. Microbiol. 36:618-629, 2000) and is induced in the presence of neutrophils (Fradin et al., Mol. Microbiol. 56:397-415, 2005). To correlate these studies performed at 30° C. and 37° C., respectively, with our in vivo infection performed at 20° C., we compared the ROS sensitivity profiles of cap1Δ/Δ, CAP1-complemented and the cognate wild type strain at 20° C., 30° C. and 37° C.

Structure (SMILES) | CFUs of C. albicans recovered from macrophages [1] | growth of CAP1-complemented strain [2] | growth of reconstructed cap1Δ mutant [2]
c1ccc2c(c1)[I+]c1ccccc1-2 [DPI, Diphenyleneiodonium chloride] | no difference in CFUs recovered from macrophages between the three strains | – | –
OO [hydrogen peroxide] | – | same growth as the wild type | failed to grow
